# From EP3325012B1, “CINEOLE-CONTAINING COMPOSITION FOR TREATING NOSE POLYPS” (Maria Clementine Martin Klosterfrau Vertriebsgesellschaft …, priority 2015, dated 2017)
# “Also recorded” adds a separate entry of the source.
# Legend:
# WIF-1 = details: Colon-Ca-Zelllinien; cited from earlier work
# beta-Catenin = assay: Anti-(active-)beta-catenin immunohistochemistry on polyp single-cell suspensions (chamber slides); assay type: cell-based, Mensch; details: 24 h incubation
# Protocol: Im entzündlichen Infiltrat des Polyposisgewebes ließ sich immunhistochemisch nukleäres beta-Catenin nachweisen.
# Es wurde eine Anti-Active-beta-Catenin-Immunhistochemie auf mit dem GSK-3-Inhibitor SB216763 für 24 h inkubierter Polyposis-Einzelzellsuspension (Chamber Slide) durchgeführt.
# Polyposis-Primärgewebe = assay: Cytokine release from polyposis primary tissue; assay type: cell-based, Mensch; details: incubation of primary tissue
SMILES,Regulation von WIF-1 (WIF-1),Akkumulation von beta-Catenin im Zytoplasma (beta-Catenin),Translokation von beta-Catenin in den Zellkern (beta-Catenin),Ausschüttung von IL-6 (Polyposis-Primärgewebe),Ausschüttung von IL-8 (Polyposis-Primärgewebe)
CC(=O)Oc1ccccc1C(=O)O [Acetylsalicylsäure],Hochregulation,,,,
Cn1cc(C2=C(c3ccc(Cl)cc3Cl)C(=O)NC2=O)c2ccccc21 [SB216763],,Akkumulation von beta-Catenin im Zytoplasma; also recorded: deutliche Anreicherung,Translokation von beta-Catenin in den Zellkern,verminderte Ausschüttung,verminderte Ausschüttung
